Molecular target: ACC2 (Homo sapiens, UniProt O00763)
Experiment: In vitro ACC2 inhibition assay (ADP-Glo)
Assay type: biochemical
Conditions: read-out: ACC2
Description: An exemplary procedure for the in vitro ACC inhibition assay, which can be used to determine the inhibitory action of compounds of the invention toward either ACC1 or ACC2, follows. The ADP-Glo™ Kinase Assay kit from Promega was used. The ADP-Glo™ Kinase Assay is a luminescent ADP detection assay to measure enzymatic activity by quantifying the amount of ADP produced during an enzyme reaction. The assay is performed in two steps; first, after the enzyme reaction, an equal volume of ADP-Glo™ Reagent is added to terminate the reaction and deplete the remaining ATP. Second, the Kinase Detection Reagent is added to simultaneously convert ADP to ATP and allow the newly synthesized ATP to be measured using a luciferase/luciferin reaction. Luminescence can be correlated to ADP concentrations by using an ATP-to-ADP conversion curve. The detailed procedure is as follows. 50 μL of the compound being tested (600 uM in DMSO) was added to a 384-well dilution plate. The compound was diluted 1:3 in succession in DMSO for each row for 11 wells. 0.5 μL ACC2 working solution was added to 384-well white Optiplate assay plate. 0.5 μL diluted compound solution in each column from step 2 to assay plate, each row containing 2 replicates. […] The plates were incubated at room temperature for 15 minutes. 5 μL substrate working solution was added to each well to initiate reaction. […] Plates were incubated at room temperature for 60 minutes. 10 μL ADP glo reagent was added. Plates were incubated at room temperature for 40 minutes. 20 μL kinase detection reagent was added.
Data for each concentration, as well as the positive and negative controls were averaged, and the standard deviation calculated. Percent inhibition was calculated by the formula: 100× (average negative control−compound)/(average negative control−average positive control). The IC50 for each compound was calculated by fitting the data with a non-linear regression equation: Y=Bottom+(Top-Bottom)/(1+10^((Log IC50−X)*HillSlope)), where X is the log of compound concentration and Y is percent inhibition.
The compound numbers correspond to the compound numbers in Table 1.

ACC2, sequence (O00763 whole entry, species assumed): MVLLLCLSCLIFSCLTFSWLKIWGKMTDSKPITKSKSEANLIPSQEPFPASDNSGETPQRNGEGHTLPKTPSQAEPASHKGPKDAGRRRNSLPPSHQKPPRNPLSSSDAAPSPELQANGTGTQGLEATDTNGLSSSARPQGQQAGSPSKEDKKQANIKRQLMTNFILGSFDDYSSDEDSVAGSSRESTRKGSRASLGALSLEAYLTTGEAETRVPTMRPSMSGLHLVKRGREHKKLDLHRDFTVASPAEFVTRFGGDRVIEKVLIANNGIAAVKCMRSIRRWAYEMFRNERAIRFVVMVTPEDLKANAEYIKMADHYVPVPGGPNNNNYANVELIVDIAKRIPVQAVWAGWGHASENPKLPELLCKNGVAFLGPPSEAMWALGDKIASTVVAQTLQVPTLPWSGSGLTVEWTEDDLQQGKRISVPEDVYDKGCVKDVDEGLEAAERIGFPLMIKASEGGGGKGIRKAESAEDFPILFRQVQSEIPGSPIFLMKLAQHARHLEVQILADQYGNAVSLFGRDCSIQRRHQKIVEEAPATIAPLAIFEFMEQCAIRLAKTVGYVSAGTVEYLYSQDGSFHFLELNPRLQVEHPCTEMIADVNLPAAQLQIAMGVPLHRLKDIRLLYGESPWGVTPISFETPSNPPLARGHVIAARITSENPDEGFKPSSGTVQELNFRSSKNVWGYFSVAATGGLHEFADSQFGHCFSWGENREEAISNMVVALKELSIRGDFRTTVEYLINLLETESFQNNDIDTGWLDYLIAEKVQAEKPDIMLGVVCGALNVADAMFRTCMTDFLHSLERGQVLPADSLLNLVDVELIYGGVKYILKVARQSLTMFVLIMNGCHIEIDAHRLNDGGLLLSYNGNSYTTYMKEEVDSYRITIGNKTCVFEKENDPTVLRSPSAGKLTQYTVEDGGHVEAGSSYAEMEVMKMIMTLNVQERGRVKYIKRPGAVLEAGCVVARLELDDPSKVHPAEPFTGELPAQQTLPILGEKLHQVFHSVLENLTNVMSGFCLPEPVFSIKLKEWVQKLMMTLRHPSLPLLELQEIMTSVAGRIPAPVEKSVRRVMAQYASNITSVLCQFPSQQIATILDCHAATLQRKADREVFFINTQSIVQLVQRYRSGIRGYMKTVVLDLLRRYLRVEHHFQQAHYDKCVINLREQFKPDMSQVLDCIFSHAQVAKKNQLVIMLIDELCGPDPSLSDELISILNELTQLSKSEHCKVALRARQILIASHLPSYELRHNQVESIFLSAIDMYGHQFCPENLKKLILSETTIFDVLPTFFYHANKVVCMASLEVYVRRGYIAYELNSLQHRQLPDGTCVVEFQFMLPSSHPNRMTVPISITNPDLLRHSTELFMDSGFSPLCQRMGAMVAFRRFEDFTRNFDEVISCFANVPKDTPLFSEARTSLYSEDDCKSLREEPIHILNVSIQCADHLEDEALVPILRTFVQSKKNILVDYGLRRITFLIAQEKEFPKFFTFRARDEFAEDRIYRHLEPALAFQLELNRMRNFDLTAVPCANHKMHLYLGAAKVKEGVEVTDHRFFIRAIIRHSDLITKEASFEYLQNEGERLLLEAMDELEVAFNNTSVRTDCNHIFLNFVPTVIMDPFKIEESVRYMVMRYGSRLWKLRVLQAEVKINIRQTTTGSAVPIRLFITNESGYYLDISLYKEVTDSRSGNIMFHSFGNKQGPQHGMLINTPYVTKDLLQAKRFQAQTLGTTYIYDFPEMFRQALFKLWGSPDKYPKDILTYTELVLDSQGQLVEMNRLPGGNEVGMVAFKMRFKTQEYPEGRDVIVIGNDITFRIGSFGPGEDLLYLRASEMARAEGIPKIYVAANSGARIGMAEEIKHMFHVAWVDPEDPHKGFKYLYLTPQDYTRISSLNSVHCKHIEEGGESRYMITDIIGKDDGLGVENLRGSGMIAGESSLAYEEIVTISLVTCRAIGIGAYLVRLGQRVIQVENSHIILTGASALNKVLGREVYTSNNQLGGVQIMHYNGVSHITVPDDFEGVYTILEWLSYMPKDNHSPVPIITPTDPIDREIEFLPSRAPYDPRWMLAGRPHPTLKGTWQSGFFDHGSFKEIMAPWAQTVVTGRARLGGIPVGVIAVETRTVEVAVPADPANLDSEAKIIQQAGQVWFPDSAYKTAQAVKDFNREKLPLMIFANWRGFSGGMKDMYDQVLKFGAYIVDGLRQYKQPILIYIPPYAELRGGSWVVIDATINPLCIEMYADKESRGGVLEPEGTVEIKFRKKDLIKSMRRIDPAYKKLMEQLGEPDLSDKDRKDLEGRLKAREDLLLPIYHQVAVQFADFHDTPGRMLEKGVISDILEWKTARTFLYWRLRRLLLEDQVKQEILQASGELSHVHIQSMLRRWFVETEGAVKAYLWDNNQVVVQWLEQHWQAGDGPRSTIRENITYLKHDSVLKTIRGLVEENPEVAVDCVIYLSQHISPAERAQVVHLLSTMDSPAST

| SMILES | IC50 [µM] |
| --- | --- |
| COc1ccccc1[C@H](Cn1c(=O)n(C(C)(C)C(=O)O)c(=O)c2c(C)c(-c3ncco3)sc21)OC1COC1 [I-261, (R)-2-(1-(2-(2-methoxyphenyl)-2-(oxetan-3-yloxy)ethyl)-5-methyl-6-(oxazol-2-yl)-2,4-dioxo-1,2-dihydrothieno[2,3-d]pyrimidin-3(4H)-yl)-2-methylpropanoic acid] | < 5 |
| CCOC(=O)c1sc2c(c1C)c(=O)n(CC(=O)O)c(=O)n2C[C@@H](OC)c1ccccc1 [I-104, 2-[6-(ethoxycarbonyl)-1-[(2S)-2-methoxy-2-phenylethyl]-5-methyl-2,4-dioxo-1H,2H,3H,4H-thieno[2,3-d]pyrimidin-3-yl]acetic acid] | 20 to 50 |
| CCOC(=O)c1sc2c(c1C)c(=O)n(C(C)C(=O)O)c(=O)n2CCc1ccccc1 (stereo not drawn) [I-56, 2-[6-(ethoxycarbonyl)-5-methyl-2,4-dioxo-1-(2-phenylethyl)-1H,2H,3H,4H-thieno[2,3-d]pyrimidin-3-yl]propanoic acid] | < 5 |
| Cc1c(-c2ncco2)sc2c1c(=O)n(Cc1nn[nH]n1)c(=O)n2C[C@H](OC(C)C)c1ccccc1 [I-153, 5-methyl-6-(1,3-oxazol-2-yl)-1-[(2R)-2-phenyl-2-(propan-2-yloxy)ethyl]-3-(1H-1,2,3,4-tetrazol-5-ylmethyl)-1H,2H,3H,4H-thieno[2,3-d]pyrimidine-2,4-dione] | < 1 |
| Cc1c(-c2ncco2)sc2c1c(=O)n(C(C)(C)C(=O)O)c(=O)n2C[C@H](OC1COC1)c1ccccc1 [I-182, 2-methyl-2-[5-methyl-6-(1,3-oxazol-2-yl)-1-[(2R)-2-(oxetan-3-yloxy)-2-phenylethyl]-2,4-dioxo-1H,2H,3H,4H-thieno[2,3-d]pyrimidin-3-yl]propanoic acid] | 20 to 50 |
| CCOC(=O)c1sc2c(c1C)c(=O)n(C(C)(C)C(=O)O)c(=O)n2C[C@@H](OCC(C)C)c1ccccc1 [I-124, 2-[6-(ethoxycarbonyl)-5-methyl-1-[(2S)-2-(2-methylpropoxy)-2-phenylethyl]-2,4-dioxo-1H,2H,3H,4H-thieno[2,3-d]pyrimidin-3-yl]-2-methylpropanoic acid] | 5 to 20 |
| Cc1c(-n2ccnc2)sc2c1c(=O)n(C(C)(C)C(=O)O)c(=O)n2CCc1ccccc1 [I-118, 2-[6-(1H-imidazol-1-yl)-5-methyl-2,4-dioxo-1-(2-phenylethyl)-1H,2H,3H,4H-thieno[2,3-d]pyrimidin-3-yl]-2-methylpropanoic acid] | 20 to 50 |
| CCOC(=O)c1sc2c(c1C)c(=O)n(CC(=O)NCCO)c(=O)n2CCc1ccccc1 [I-48, ethyl 3-[[(2-hydroxyethyl)carbamoyl]methyl]-5-methyl-2,4-dioxo-1-(2-phenylethyl)-1H,2H,3H,4H-thieno[2,3-d]pyrimidine-6-carboxylate] | 5 to 20 |
| CCOC(=O)c1sc2c(c1C)c(=O)n(CC(=O)O)c(=O)n2CCc1ccccc1Br [I-54, 2-[1-[2-(2-bromophenyl)ethyl]-6-(ethoxycarbonyl)-5-methyl-2,4-dioxo-1H,2H,3H,4H-thieno[2,3-d]pyrimidin-3-yl]acetic acid] | 5 to 20 |
| [2H]c1ccc(CCn2c(=O)n(CC(=O)O)c(=O)c3c(C)c(C(=O)OCC)sc32)cc1 [I-66, 2-(1-(4-deuterophenethyl)-6-(ethoxycarbonyl)-5-methyl-2,4-doxo-1,2-dihydrothieno[2,3-d]pyrimidin-3(4H)-yl)acetic acid] | < 5 |
| CCOC(=O)c1sc2c(c1C)c(=O)n(CCO)c(=O)n2CCc1nc2ccccc2s1 [I-44] | > 50 |
| CCOC(=O)c1sc2c(c1C)c(=O)n([C@@H](C)C(=O)O)c(=O)n2CCc1ccccc1 [I-80, (2S)-2-[6-(ethoxycarbonyl)-5-methyl-2,4-dioxo-1-(2-phenylethyl)-1H,2H,3H,4H-thieno[2,3-d]pyrimidin-3-yl]propanoic acid] | < 5 |
| Cc1c(-c2ncco2)sc2c1c(=O)n(C(C)(C)C(=O)O)c(=O)n2C[C@H](O[C@H]1CCC[C@@H](O)C1)c1ccccc1 [I-173, 2-(1-((R)-2-(((1S,3R)-3-hydroxycyclohexyl)oxy)-2-phenylethyl)-5-methyl-6-(oxazol-2-yl)-2,4-dioxo-1,2-dihydrothieno[2,3-d]pyrimidin-3(4H)-yl)-2-methylpropanoic acid] | < 1 |
| CCOC(=O)c1sc2c(c1C)c(=O)n(CC(=O)O)c(=O)n2C[C@@H](O)c1ccccc1 [I-77, 2-[6-(ethoxycarbonyl)-1-[(2S)-2-hydroxy-2-phenylethyl]-5-methyl-2,4-dioxo-1H,2H,3H,4H-thieno[2,3-d]pyrimidin-3-yl]acetic acid] | 5 to 20 |
| CCOC(=O)c1sc2c(c1C)c(=O)n(CC#N)c(=O)n2CCc1ccccc1 [I-43] | 5 to 20 |
| CCOC(=O)c1sc2c(c1C)c(=O)n(C[C@H](C)O)c(=O)n2CCc1ccccc1 [I-82, ethyl 3-[(2S)-2-hydroxypropyl]-5-methyl-2,4-dioxo-1-(2-phenylethyl)-1H,2H,3H,4H-thieno[2,3-d]pyrimidine-6-carboxylate] | 5 to 20 |
| CCOC(=O)c1sc2c(c1C)c(=O)n(C(C)(C)C(=O)O)c(=O)n2CCc1ccc(I)cc1 [I-95, 2-[6-(ethoxycarbonyl)-1-[2-(4-iodophenyl)ethyl]-5-methyl-2,4-dioxo-1H,2H,3H,4H-thieno[2,3-d]pyrimidin-3-yl]-2-methylpropanoic acid] | 20 to 50 |
| Cc1c(-c2ncco2)sc2c1c(=O)n(C(C)(C)C(=O)O)c(=O)n2C[C@H](OC(=O)N1CCOCC1)c1ccccc1 [I-231, 2-methyl-2-[5-methyl-1-[(2R)-2-[(morpholin-4-yl)carbonyloxy]-2-phenylethyl]-6-(1,3-oxazol-2-yl)-2,4-dioxo-1H,2H,3H,4H-thieno[2,3-d]pyrimidin-3-yl]propanoic acid] | < 5 |

Continued, values first:

| IC50 [µM] | SMILES |
| --- | --- |
| < 5 | COc1ccccc1[C@H](Cn1c(=O)n(C(C)(C)C(=O)NCCO)c(=O)c2c(C)c(-c3ncco3)sc21)OC(C)C [I-257, N-(2-hydroxyethyl)-2-[1-[(2R)-2-(2-methoxyphenyl)-2-(propan-2-yloxy)ethyl]-5-methyl-6-(1,3-oxazol-2-yl)-2,4-dioxo-1H,2H,3H,4H-thieno[2,3-d]pyrimidin-3-yl]-2-methylpropanamide] |
| < 0.1 | COc1ccccc1[C@H](Cn1c(=O)n(C(C)(C)C(=O)NS(C)(=O)=O)c(=O)c2c(C)c(-c3ncco3)sc21)OC(C)C [I-240, N-methanesulfonyl-2-[1-[(2R)-2-(2-methoxyphenyl)-2-(propan-2-yloxy)ethyl]-5-methyl-6-(1,3-oxazol-2-yl)-2,4-dioxo-1H,2H,3H,4H-thieno[2,3-d]pyrimidin-3-yl]-2-methylpropanamide] |
| 5 to 20 | COC(=O)c1sc2c(c1C)c(=O)n(CCO)c(=O)n2CCc1ccccc1 [I-37, methyl 3-(2-hydroxyethyl)-5-methyl-2,4-dioxo-1-(2-phenylethyl)-1H,2H,3H,4H-thieno[2,3-d]pyrimidine-6-carboxylate] |
| > 50 | Cc1csc2c1c(=O)n(CCO)c(=O)n2CCc1ccccc1 [I-58] |
| 5 to 20 | CCOC(=O)c1sc2c(c1C)c(=O)n(CC(=O)O)c(=O)n2CC(OC(=O)COC)c1ccccc1 (stereo not drawn) [I-101, 2-[6-(ethoxycarbonyl)-1-[2-[(2-methoxyacetyl)oxy]-2-phenylethyl]-5-methyl-2,4-dioxo-1H,2H,3H,4H-thieno[2,3-d]pyrimidin-3-yl]acetic acid] |
| 20 to 50 | O=C(O)Cn1c(=O)c2c3c(sc2n(CCc2ccccc2)c1=O)CCCC3 [I-3] |
| 5 to 20 | CCCOC(=O)c1sc2c(c1C)c(=O)n(CC(=O)O)c(=O)n2CCc1ccccc1 [I-68, 2-[5-methyl-2,4-dioxo-1-(2-phenylethyl)-6-(propoxycarbonyl)-1H,2H,3H,4H-thieno[2,3-d]pyrimidin-3-yl]acetic acid] |
| > 50 | CCOC(=O)c1sc2c(c1C)c(=O)n(CCO)c(=O)n2CCc1ccc(Cl)cc1 [I-17] |
| 20 to 50 | Cc1c(C2CC2)sc2c1c(=O)n(C(C)(C)C(=O)O)c(=O)n2CCc1ccccc1 [I-132, 2-[6-cyclopropyl-5-methyl-2,4-dioxo-1-(2-phenylethyl)-1H,2H,3H,4H-thieno[2,3-d]pyrimidin-3-yl]-2-methylpropanoic acid] |
| < 5 | Cc1c(-c2ncco2)sc2c1c(=O)n(CC(=O)O)c(=O)n2CCc1ccccc1 [I-92, 2-[5-methyl-6-(1,3-oxazol-2-yl)-2,4-dioxo-1-(2-phenylethyl)-1H,2H,3H,4H-thieno[2,3-d]pyrimidin-3-yl]acetic acid] |
| < 1 | Cc1c(-c2ncco2)sc2c1c(=O)n(C(C)(C)C(=O)O)c(=O)n2C[C@H](O[C@H]1CCCC[C@@H]1C)c1ccccc1 [I-152, 2-methyl-2-[5-methyl-1-[(2R)-2-[[(1S,2S)-2-methylcyclohexyl]oxy]-2-phenylethyl]-6-(1,3-oxazol-2-yl)-2,4-dioxo-1H,2H,3H,4H-thieno[2,3-d]pyrimidin-3-yl]propanoic acid] |
| > 50 | Cc1c(C(N)=O)sc2c1c(=O)n(CCO)c(=O)n2CCc1ccccc1 [I-47] |
